Tests used:
[1] = Effect on the activity of prolyl endopeptidase (PEP) was evaluated at 1 mM concentration for DPP IV
[2] = Effect on the activity of prolyl endopeptidase (PEP) was evaluated at the IC50 concentration for DPP IV and

Compound `CC(=O)Nc1cccc(OP(=O)(Oc2cccc(NC(C)=O)c2)C2CCCN2C(=O)C2CCCN2)c1` (configuration not stated) [2-{2-[Bis-(3-acetylamino-phenoxy)-phosphoryl]-pyrrolidine-1-carbonyl}-pyrrolidinium; chloride] has an IC50 [1] of 50 µM and an IC50 [2] of 89 µM.
